Reference: PMC5932348, “Identification and Characterization of c-di-GMP Metabolic Enzymes of Leptospira interrogans and c-di-GMP Fluctuations After Thermal Shift and Infection” (Frontiers in Microbiology, 2018)

Assays:
Experiment in all cases: RP-HPLC product detection, […] nm
Format in all cases: biochemical
[1] = target: T1, LA2383 (Leptospira interrogans, UniProt Q8F3L8); details: 10 uM substrate; pH 8.5; 5 mM MgCl2; 10 mM MnCl2; 28 C, 1 h
T1 construct: gene LA_2383; HD-GYP protein lacking the conserved HD residues, pET-28a or pET-32a, E. coli BL21(DE3), Ni-NTA

[2] = target: T2, LA2528 (Leptospira interrogans, UniProt Q8F383); details: 100 uM GTP; pH 7.8; 10 mM MgCl2; 28 C, 1 h; product c-di-GMP
T2 construct: gene pleD; full-length REC-GGDEF protein, pET-28a or pET-32a, E. coli BL21(DE3), Ni-NTA

[3] = target: T3, LA1483 (Leptospira interrogans, UniProt Q8F629); details: 100 uM GTP; pH 7.8; 10 mM MgCl2; 28 C, 1 h; product c-di-GMP
T3 construct: gene LA_1483; full-length GAF-GGDEF protein, pET-28a or pET-32a, E. coli BL21(DE3), Ni-NTA
T3 sequence (Q8F629 entry or part of it): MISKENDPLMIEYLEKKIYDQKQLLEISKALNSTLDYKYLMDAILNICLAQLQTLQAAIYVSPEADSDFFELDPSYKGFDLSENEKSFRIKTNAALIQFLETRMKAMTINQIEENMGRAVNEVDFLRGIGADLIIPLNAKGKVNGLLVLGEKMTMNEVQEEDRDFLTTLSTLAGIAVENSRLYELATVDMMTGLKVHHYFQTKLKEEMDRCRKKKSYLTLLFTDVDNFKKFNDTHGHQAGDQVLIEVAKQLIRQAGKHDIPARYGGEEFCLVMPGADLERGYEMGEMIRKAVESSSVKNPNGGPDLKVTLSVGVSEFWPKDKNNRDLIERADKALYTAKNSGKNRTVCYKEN

T1 sequence (Q8F3L8 entry or part of it): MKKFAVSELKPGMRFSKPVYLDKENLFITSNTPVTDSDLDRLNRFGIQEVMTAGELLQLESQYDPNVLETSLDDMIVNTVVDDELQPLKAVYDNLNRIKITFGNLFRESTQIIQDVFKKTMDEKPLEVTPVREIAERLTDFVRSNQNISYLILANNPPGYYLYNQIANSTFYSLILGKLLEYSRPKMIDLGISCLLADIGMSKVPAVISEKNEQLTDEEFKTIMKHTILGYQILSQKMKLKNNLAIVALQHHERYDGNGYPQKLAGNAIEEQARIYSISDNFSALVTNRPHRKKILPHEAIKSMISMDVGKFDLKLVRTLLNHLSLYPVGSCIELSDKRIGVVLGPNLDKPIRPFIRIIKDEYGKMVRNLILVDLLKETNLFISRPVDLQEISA
T2 sequence (Q8F383 entry or part of it): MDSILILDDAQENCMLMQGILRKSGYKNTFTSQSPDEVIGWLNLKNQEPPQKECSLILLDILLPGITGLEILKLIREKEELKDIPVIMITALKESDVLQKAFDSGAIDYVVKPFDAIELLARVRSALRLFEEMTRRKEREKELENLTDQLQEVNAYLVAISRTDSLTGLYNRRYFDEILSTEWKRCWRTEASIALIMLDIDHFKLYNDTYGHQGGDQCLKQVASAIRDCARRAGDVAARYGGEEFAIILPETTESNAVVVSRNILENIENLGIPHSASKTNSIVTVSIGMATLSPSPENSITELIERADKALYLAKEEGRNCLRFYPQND

## Nc1nc2c(ncn2[C@@H]2O[C@@H]3COP(=O)(O)O[C@H]4[C@@H](O)[C@H](n5cnc6c(=O)[nH]c(N)nc65)O[C@@H]4COP(=O)(O)O[C@H]3[C@H]2O)c(=O)[nH]1 [c-di-GMP]
[1]
  RP-HPLC product detection, 254 nm: LA2383 was able to hydrolyze both c-di-GMP and pGpG in vitro and produce GMP

## Nc1nc2c(ncn2[C@@H]2O[C@H](COP(=O)(O)O[C@H]3[C@@H](O)[C@H](n4cnc5c(=O)[nH]c(N)nc54)O[C@@H]3COP(=O)(O)O)[C@@H](O)[C@H]2O)c(=O)[nH]1 [pGpG]
[1]
  RP-HPLC product detection, 254 nm: LA2383 was able to hydrolyze both c-di-GMP and pGpG in vitro and produce GMP

## Nc1nc2c(ncn2[C@@H]2O[C@H](COP(=O)(O)OP(=O)(O)OP(=O)(O)O)[C@@H](O)[C@H]2O)c(=O)[nH]1 [GTP]
[2]
  RP-HPLC product detection, 254 nm: they are able to utilize GTP to produce c-di-GMP
[3]
  RP-HPLC product detection, 254 nm: they are able to utilize GTP to produce c-di-GMP
